Source: ChEMBL document CHEMBL3585327 (Medchemcomm, 2014)

What was measured:
[1] = target: T1, D(2) dopamine receptor (Homo sapiens, UniProt P14416); assay: Agonist activity at human dopamine D2L receptor expressed in CHO cell membranes after 1 hr by [35S]-GTPgammaS binding assay; format: functional
[2] = target: T1, D(2) dopamine receptor; assay: Agonist activity at human dopamine D2L receptor expressed in CHO cell membranes after 1 hr by [35S]-GTPgammaS binding assay relative to 100 uM quinelorane; format: functional
[3] = target: T1, D(2) dopamine receptor; assay: Potency index, ratio of quinelorane EC50 to compound EC50 for human dopamine D2L receptor expressed in CHO cell membranes; format: cell-based
[4] = target: D(1A) dopamine receptor (Homo sapiens, UniProt P21728); assay: Binding affinity to human dopamine D1 receptor
[5] = target: T1, D(2) dopamine receptor; assay: Binding affinity to human dopamine D2 receptor
[6] = target: T2, D(4) dopamine receptor (Homo sapiens, UniProt P21917); assay: Binding affinity to human dopamine D4 receptor
T2 sequence (P21917 whole entry): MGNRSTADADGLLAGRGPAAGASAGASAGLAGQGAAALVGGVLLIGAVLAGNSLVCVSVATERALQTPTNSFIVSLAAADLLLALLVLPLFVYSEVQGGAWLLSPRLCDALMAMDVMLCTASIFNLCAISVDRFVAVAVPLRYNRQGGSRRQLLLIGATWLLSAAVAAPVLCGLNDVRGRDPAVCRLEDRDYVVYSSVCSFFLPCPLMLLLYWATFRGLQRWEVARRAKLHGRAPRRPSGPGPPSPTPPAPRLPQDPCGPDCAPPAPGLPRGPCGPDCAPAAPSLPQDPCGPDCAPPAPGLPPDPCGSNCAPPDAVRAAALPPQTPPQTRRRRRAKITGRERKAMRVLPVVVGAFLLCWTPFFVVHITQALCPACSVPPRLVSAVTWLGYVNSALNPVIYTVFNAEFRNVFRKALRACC

[7] = target: D(1B) dopamine receptor (Homo sapiens, UniProt P21918); assay: Binding affinity to human dopamine D5 receptor
D(1B) dopamine receptor, sequence (P21918 whole entry): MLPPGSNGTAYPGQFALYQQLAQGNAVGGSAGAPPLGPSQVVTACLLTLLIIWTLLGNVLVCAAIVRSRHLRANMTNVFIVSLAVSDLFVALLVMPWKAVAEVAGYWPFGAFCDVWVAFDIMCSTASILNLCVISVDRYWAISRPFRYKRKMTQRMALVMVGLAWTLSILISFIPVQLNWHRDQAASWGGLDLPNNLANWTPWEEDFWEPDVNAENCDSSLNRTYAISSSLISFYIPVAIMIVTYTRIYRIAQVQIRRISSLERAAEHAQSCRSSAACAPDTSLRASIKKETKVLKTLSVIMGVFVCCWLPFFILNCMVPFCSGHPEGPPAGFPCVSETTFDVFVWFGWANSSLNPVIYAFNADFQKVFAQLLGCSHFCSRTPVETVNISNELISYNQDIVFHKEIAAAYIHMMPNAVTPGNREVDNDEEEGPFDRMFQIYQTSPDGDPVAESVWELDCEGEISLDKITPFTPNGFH

T1 sequence (P14416 whole entry): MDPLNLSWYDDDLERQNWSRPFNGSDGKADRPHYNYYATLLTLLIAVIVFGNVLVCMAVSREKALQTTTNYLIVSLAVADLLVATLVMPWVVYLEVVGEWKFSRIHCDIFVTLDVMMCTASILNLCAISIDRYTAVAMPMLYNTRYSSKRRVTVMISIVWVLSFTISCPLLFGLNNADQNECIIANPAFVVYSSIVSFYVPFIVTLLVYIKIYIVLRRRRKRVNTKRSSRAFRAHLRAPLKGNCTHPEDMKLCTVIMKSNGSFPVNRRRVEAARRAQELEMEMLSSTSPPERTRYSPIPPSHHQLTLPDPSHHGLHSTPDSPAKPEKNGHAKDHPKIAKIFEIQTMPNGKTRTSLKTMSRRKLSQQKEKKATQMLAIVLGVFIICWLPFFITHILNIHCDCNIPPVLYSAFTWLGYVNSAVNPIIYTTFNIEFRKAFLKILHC
D(1A) dopamine receptor, sequence (P21728 whole entry): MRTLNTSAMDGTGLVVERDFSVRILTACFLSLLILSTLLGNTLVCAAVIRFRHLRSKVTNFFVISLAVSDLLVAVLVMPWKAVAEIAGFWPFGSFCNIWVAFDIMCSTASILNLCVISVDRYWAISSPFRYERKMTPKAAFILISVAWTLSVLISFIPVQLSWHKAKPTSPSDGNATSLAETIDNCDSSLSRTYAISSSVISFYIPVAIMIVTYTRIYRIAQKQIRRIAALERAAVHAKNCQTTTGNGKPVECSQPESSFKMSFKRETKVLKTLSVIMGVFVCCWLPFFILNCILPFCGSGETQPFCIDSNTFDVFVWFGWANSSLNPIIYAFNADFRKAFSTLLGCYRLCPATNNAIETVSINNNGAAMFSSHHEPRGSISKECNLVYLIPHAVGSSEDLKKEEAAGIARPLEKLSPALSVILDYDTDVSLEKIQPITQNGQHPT

| EC50 ([1]; read-out: EC50) | Emax [2] | Structure (SMILES) | also measured |
| --- | --- | --- | --- |
| 3.9 nM | 85% | CCCN(CCCNC(=O)CCCCCCCCCCC(=O)NCCCN(CCC)CCc1cccc2c1CC(=O)N2)CCc1cccc2c1CC(=O)N2 | Ratio EC50 [3]: 3 |
| 219 nM | 69% | CCCN(CCCNC(=O)OC(C)(C)C)CCc1cccc2c1CC(=O)N2 |  |
| 1410 nM | 45% | CCCN(CCCNC(=O)OC(C)(C)C)CCc1cccc2c1CC(=O)N2CCCNC(=O)OC(C)(C)C | EC50 ([1]; read-out: pEC50 (converted)): 1450 nM |
|  |  | CCCN(CCC)CCc1cccc2c1CC(=O)N2 [ROPINIROLE] | Ki [4]: 32500 nM; Ki [5]: 3.7 nM; Ki [6]: 7.8 nM; Ki [7]: 41200 nM |
| 55 nM | 90% | CCCN(CCCC(=O)OCC)CCc1cccc2c1CC(=O)N2 |  |
| 4680 nM | 72% | CCCN(CCCNC(=O)CCC(=O)O)CCc1cccc2c1CC(=O)N2 |  |
| 22 nM | 99% | CCCN(CCCNC(=O)CCCCCCC(=O)NCCCN(CCC)CCc1cccc2c1CC(=O)N2)CCc1cccc2c1CC(=O)N2 |  |
| 85 nM | 92% | CCCNCCc1cccc2c1CC(=O)N2 |  |
| 42 nM | 78% | CCCCCCCCCC(=O)NCCCN(CCC)CCc1cccc2c1CC(=O)N2 |  |
| 14 nM | 58% | CCCN(CCCNC(=O)CCCCCCCCCCCCCCCCCCC(=O)NCCCN(CCC)CCc1cccc2c1CC(=O)N2)CCc1cccc2c1CC(=O)N2 | Ratio EC50 [3]: 3 |
| 6.2 nM | 85% | CCCN(CCCNC(=O)CCCCCCCCCCCCCCC(=O)NCCCN(CCC)CCc1cccc2c1CC(=O)N2)CCc1cccc2c1CC(=O)N2 | Ratio EC50 [3]: 3 |
| 28 nM | 94% | CCCN(CCCNC(=O)CCC(=O)NCCCN(CCC)CCc1cccc2c1CC(=O)N2)CCc1cccc2c1CC(=O)N2 |  |

| Structure (SMILES) | EC50 ([1]; read-out: EC50) | Emax [2] | also measured |
| --- | --- | --- | --- |
| CCCN1CCC[C@@H]2Cc3nc(N)ncc3C[C@H]21 [QUINELORANE] | 45 nM |  |  |
